The text below walks through data of patent EP0236477B1 (priority 1985, dated 1987).

The conditions of series [1]: cited from earlier work; for potency relative to naloxone: in vivo.
For series [2] the following is noted: plasma of a patient; cited from earlier work.
A short description of series [3]: Duration of opioid antagonistic activity (general statements). Format: in vivo. Particulars: intravenously injectable.

In the case of `O=C1CC[C@@]2(O)[C@H]3Cc4ccc(O)c5c4[C@@]2(CCN3CC2CC2)[C@H]1O5` [naltrexon, reference compound], the “potency relative to naloxone” value in series [1] is “significantly more potent”.

For the compound `C=C1CC[C@@]2(O)[C@H]3Cc4ccc(O)c5c4[C@@]2(CCN3CC2CC2)[C@H]1O5` [6-methylene-6-desoxy-N-cyclopropylmethyl-14-hydroxydihydronormorphine], the “time a pharmacologically active concentration can remain in the plasma” value in series [2] is on record as “three days”. In series [3], the “duration of antagonistic activity” value is given as “at least 6 hours”. In series [1], the “potency relative to naloxone” value is listed as “significantly more potent”. Further, the “potency as an antagonist relative to naltrexon” value in series [1] (intravenous route) was “about four times more potent”.
